Measured values reported in patent EP2061765B1, “Serine-threonine protein kinase and PARP modulators” (Senhwa Biosciences, Inc., priority 2006, dated 2008).

How the values were obtained:
[1] = tested on: K-562; assay: Cell proliferation assay (Alamar Blue); format: cell-based; settings: Homo sapiens, K562, 96 h, K-562 cells, four days
[2] = tested on: LNCaP; assay: Cell proliferation assay (Alamar Blue); format: cell-based; settings: Homo sapiens, 96 h, LNCaP cells, four days
In short: (§1)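 Cells plated at 4,000-5,000 per well, then exposed to compound for four days at 37°C, 5% CO2. Alamar Blue added for a further 4 h; fluorescence read at ex 544/em 590 nm. Medium-only wells served as blank, cells without compound as untreated control.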

[3] = tested on: MDAMB231; assay: Cell proliferation assay (Alamar Blue); format: cell-based; settings: Homo sapiens, MDA-MB-231, 96 h, MDAMB231 cells, four days
In short: as §1

[4] = tested on: MCF-7; assay: Cell proliferation assay (Alamar Blue); format: cell-based; settings: Homo sapiens, MCF7, 96 h, MCF-7 cells, four days
In short: as §1

[5] = tested on: A549; assay: Cell proliferation assay (Alamar Blue); format: cell-based; settings: Homo sapiens, 96 h, A549 cells, four days
In short: as §1

[6] = tested on: HL-60; assay: Cell proliferation assay (Alamar Blue); format: cell-based; settings: Homo sapiens, 96 h, HL-60 cells, four days
In short: as §1

[7] = tested on: Raji; assay: Cell proliferation assay (Alamar Blue); format: cell-based; settings: Homo sapiens, 96 h, Raji cells, four days
In short: as §1

[8] = tested on: BxPC3; assay: Cell proliferation assay (Alamar Blue); format: cell-based; settings: Homo sapiens, BXPC-3, 96 h, BxPC3 cells, four days
In short: as §1

[9] = tested on: H460; assay: Cell proliferation assay (Alamar Blue); format: cell-based; settings: Homo sapiens, NCI-H460, 96 h, H460 cells, four days
In short: as §1

[10] = tested on: SK-OV-3; assay: Cell proliferation assay (Alamar Blue); format: cell-based; settings: Homo sapiens, 96 h, SK-OV-3 cells, four days
In short: as §1

[11] = tested on: PanC1; assay: Cell proliferation assay (Alamar Blue); format: cell-based; settings: Homo sapiens, PANC-1, 96 h, PanC1 cells, four days
In short: as §1

[12] = tested on: COLO205; assay: Cell proliferation assay (Alamar Blue); format: cell-based; settings: Homo sapiens, COLO 205, 96 h, COLO205 cells, four days
In short: as §1

[13] = tested on: HT29; assay: Cell proliferation assay (Alamar Blue); format: cell-based; settings: Homo sapiens, HT-29, 96 h, HT29 cells, four days
In short: as §1

[14] = Pharmacokinetics after IV and PO dosing
Procedure: The pharmacokinetics properties of drugs were investigated in ICR mice following an intravenous (IV) bolus and oral (PO) doses of drug at 5 mg/kg and 25 mg/kg respectively. Blood samples were collected at predetermined times and the plasma separated. Plasma was separated from the blood samples collected at 5,15 and 30 minutes and 1, 2, 4, 8 and 24 hours post-dose.
Drug levels were quantified by the LC/MS/MS method described below. Noncompartmental pharmacokinetic analysis was applied for intravenous administration. […] The terminal t1/2 and Co were calculated using the last three and the first three data points, respectively
Bioanalysis was performed using a Quattro Micro LC/MS/MS instrument in the MRM detection mode, with an internal standard (IS). Briefly, 15 µL plasma samples were prepared for analysis using protein precipitation with 120 µL of acetonitrile. The supernatants were transferred into a 96 well plate and subjected to LC-MS/MS analysis using a Phenomenex Polar-RP HPLC column. The mobile phases were 10 mM NH4HCO3 in water (Solution-A) and 10 mM NH4HCO3 in methanol (Solution-B). […] Quantitation of the analytes was performed in the batch mode with two bracketing calibration curves according to the bioanalytical sample list

| Structure (SMILES) | IC50 [1] [µM] | IC50 [2] [µM] | IC50 [3] [µM] | IC50 [4] [µM] | IC50 [5] [µM] | IC50 [8] [µM] | IC50 [11] [µM] | IC50 [13] [µM] | other results |
| --- | --- | --- | --- | --- | --- | --- | --- | --- | --- |
| C#Cc1cccc(Nc2nc3cc(C(=O)O)ccc3c3cncnc23)c1 [drawing 380] | 1.2 | 1.4 | 4.25 | 1.27 | 21.2 | – | – | – | IC50 [6]: 4.49 µM; IC50 [7]: 3.38 µM |
| Fc1cccc(Nc2nc3cc(-c4nnn[nH]4)ccc3c3cnccc23)c1 [drawing 381] | – | < 0.2 | > 50 | > 50 | > 50 | – | – | – | – |
| Fc1cc(Nc2nc3cc(-c4nnn[nH]4)ccc3c3cnccc23)ccc1Cl [drawing 382] | > 50 | 48.2 | > 50 | 5.94 | > 50 | – | – | – | – |
| CNc1ncc2c(n1)c(Nc1ccccc1)nc1cc(C(=O)O)ccc12 [drawing 383] | – | 1.44 | 2.38 | 3.4 | 13.9 | – | – | – | IC50 [6]: 0.73 µM; IC50 [7]: 4.97 µM |
| O=C(O)c1ccc2c(c1)nc(Nc1ccc(Cl)cc1)c1ccncc12 [drawing 384] | 8.65 | 7.39 | 3.79 | 0.76 | 9.74 | – | – | – | IC50 [6]: 3.74 µM; IC50 [7]: 5.46 µM |
| C#Cc1cccc(Nc2nc3cc(C(=O)O)ccc3c3cnccc23)c1 [drawing 385] | 3.33 | 17.1 | 11.8 | 1.43 | 30.2 | – | – | – | IC50 [6]: 5.59 µM; IC50 [7]: 4.28 µM |
| Clc1cccc(Nc2nc3cc(-c4nnn[nH]4)ccc3c3cnccc23)c1 [drawing 386] | 31.2 | 37.4 | > 50 | > 50 | > 50 | – | – | – | – |
| O=C(O)c1ccc2c(c1)nc(Nc1cc(F)cc(F)c1)c1ccncc12 [drawing 387] | 3.26 | 10.8 | 11 | 1.89 | 27.4 | – | – | – | IC50 [6]: 4.81 µM; IC50 [7]: 6.35 µM |
| N#Cc1cccc(Nc2nc3cc(C(=O)O)ccc3c3cnccc23)c1 [drawing 388] | 9.15 | 15.5 | 28.7 | 41 | > 50 | – | – | – | – |
| O=C(O)c1ccc2c(c1)nc(Nc1ccc(F)c(Cl)c1)c1ccncc12 [drawing 444] | – | – | – | – | – | 1.5 | 1.84 | – | IC50 [9]: 8.69 µM; IC50 [10]: 7.33 µM; IC50 [12]: 2.2 µM |
| O=C(O)c1ccc2c(c1)nc(Nc1cccc(F)c1)c1ccncc12 [drawing 447] | – | – | – | – | – | – | – | 12.8 | – |
| O=C(O)c1ccc2c(c1)nc(Nc1cccc(F)c1)c1ncncc12 [drawing 450] | – | – | – | – | – | 3.48 | 3.79 | 17 | IC50 [9]: 6.16 µM; IC50 [10]: 14.4 µM; IC50 [12]: 6.16 µM |
| O=C(O)c1ccc2c(c1)nc(Nc1cccc(Cl)c1)c1ncncc12 [drawing 451] | – | – | – | – | – | 1.48 | 18.7 | 13 | IC50 [9]: 4.1 µM; IC50 [10]: 8.97 µM; IC50 [12]: 8.62 µM |
| O=C(O)c1ccc2c(c1)nc(Nc1ccc(Cl)cc1)c1ccncc12 [drawing 456] | – | – | – | – | – | 6.38 | 25.8 | 26.9 | IC50 [9]: 9.1 µM; IC50 [10]: 15.3 µM; IC50 [12]: 1.57 µM |
| O=C(O)c1ccc2c(c1)nc(Nc1cc(F)cc(F)c1)c1ccncc12 [drawing 459] | – | – | – | – | – | 1.63 | 24 | 16.6 | IC50 [9]: 7.53 µM; IC50 [10]: 10.1 µM; IC50 [12]: 3.62 µM |
| N#Cc1cccc(Nc2nc3cc(C(=O)O)ccc3c3cnccc23)c1 [drawing 460] | – | – | – | – | – | 3.62 | > 50 | 41.8 | – |
| C#Cc1cccc(Nc2nc3cc(C(=O)O)ccc3c3cncnc23)c1 [drawing 547] | – | – | – | – | – | – | – | – | F(0-Inf) ([14]; ICR mice, PO 24.5 mg/kg): 31.1%; F([…]) ([14]; ICR mice, PO 24.5 mg/kg): 26.5%; Kel ([14]; ICR mice, PO 24.5 mg/kg): 0.0594 h⁻¹; AUC(0-t) at 8 h ([14]; mouse, plasma, po, 24.5 mg/kg): 6000 ng·h/mL |
